Results as given in EP1247803A2, “Indolinone compounds suitable for modulation of protein kinases” (Sugen, Inc., priority 1996, dated 1998).

Assays:
EGFR = biological target: T1, EGFR (Homo sapiens, UniProt P00533); experiment: EGFR ELISA assay (in vitro kinase activity, EGFR captured from A431 cell lysate); type: biochemical; set-up: concentration or dose not given beside the values
T1 construct: Add 7 ug A431 cell lysate per well (EGFR source); endogenous in cells; host or cells: A431
Procedure, shortened: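 EGFR from A431 lysate was captured on plates coated with anti-EGFR antibody. Compounds were added 30 min before a 5 min phosphorylation with 3 µM ATP/5 mM MnCl2, which was stopped with 20 mM EDTA. Phosphotyrosine was detected with rabbit anti-phosphotyrosine, then a peroxidase-conjugated secondary and ABTS/H2O2, read at 410 nm.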

MET = MET biochemical kinase assay; set-up: species or system human; concentration or dose not given beside the values
Procedure, shortened: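 Colorimetric signal from an HRP-linked anti-phosphotyrosine antibody with TMB measures phosphate incorporated into immobilised MET. The receptor is pulled from lysates by a polyclonal antibody against its cytoplasmic domain, then reacts in ATP- and metal-containing buffer with test compound.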

T1 sequence (P00533 25-1210): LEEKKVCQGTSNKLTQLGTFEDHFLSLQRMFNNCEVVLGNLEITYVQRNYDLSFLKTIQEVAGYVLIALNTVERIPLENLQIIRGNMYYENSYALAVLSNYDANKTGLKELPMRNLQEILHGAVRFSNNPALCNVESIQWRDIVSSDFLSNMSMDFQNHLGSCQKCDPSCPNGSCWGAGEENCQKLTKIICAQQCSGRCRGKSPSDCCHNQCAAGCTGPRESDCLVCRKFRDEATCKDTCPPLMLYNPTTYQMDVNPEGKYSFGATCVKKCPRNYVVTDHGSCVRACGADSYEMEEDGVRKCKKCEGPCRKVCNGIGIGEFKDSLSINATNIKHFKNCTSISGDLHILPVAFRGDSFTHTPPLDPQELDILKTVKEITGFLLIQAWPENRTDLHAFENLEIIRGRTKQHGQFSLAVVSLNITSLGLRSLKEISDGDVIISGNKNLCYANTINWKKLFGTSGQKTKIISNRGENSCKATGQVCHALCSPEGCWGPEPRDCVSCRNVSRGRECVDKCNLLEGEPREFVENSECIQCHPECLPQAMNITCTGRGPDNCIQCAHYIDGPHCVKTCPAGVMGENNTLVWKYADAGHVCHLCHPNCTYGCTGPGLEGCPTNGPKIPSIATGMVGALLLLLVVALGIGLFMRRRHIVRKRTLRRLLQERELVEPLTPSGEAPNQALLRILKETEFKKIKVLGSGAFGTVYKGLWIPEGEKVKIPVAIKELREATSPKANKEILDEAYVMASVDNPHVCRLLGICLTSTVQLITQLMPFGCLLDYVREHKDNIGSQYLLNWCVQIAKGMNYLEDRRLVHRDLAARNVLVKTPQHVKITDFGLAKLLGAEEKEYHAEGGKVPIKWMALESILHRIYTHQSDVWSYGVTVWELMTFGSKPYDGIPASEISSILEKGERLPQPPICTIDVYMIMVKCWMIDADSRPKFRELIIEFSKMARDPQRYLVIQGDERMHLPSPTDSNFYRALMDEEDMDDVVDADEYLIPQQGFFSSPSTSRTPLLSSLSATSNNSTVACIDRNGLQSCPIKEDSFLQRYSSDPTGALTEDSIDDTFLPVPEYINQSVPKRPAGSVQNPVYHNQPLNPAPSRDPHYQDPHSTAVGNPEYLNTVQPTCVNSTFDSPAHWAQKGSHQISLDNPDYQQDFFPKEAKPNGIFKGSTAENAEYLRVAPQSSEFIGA

Structure (SMILES) | Biochem EGFR %Inhibition (EGFR) | Met Kinase % Inhibition (MET)
CCc1cc(CC)c(C=C2C(=O)Nc3ccc(I)cc32)[nH]1 [10727/B03] | -2.8% | 84.5%
COc1cccc(C=C2C(=O)Nc3ccc(I)cc32)c1OC [10727/B11] | 6.9% | 69.8%
O=C1Nc2ccc(CCCl)cc2C1=Cc1c[nH]c2ccccc12 [10717/G06] | -3.4% | 34.0%
Cc1cn(C)cc1C=C1C(=O)Nc2ccc(S(=O)(=O)N3CCOCC3)cc21 [10726/F06] | -24.1% | 16.2%
CCOC(=O)c1[nH]c(C=C2C(=O)Nc3ccc(S(=O)(=O)N4CCOCC4)cc32)c(C(=O)OC)c1C [10726/F03] | -17.4% | 54.1%
CNS(=O)(=O)c1ccc2c(c1)C(=Cc1ccc(Br)o1)C(=O)N2 [10726/D05] | -8.1% | 51.2%
O=C1Nc2ccc(S(=O)(=O)Nc3ccc(C(F)(F)F)cc3)cc2C1=Cc1ccc(Br)o1 [10726/E05] | 5.5% | 71.0%
CNS(=O)(=O)c1ccc2c(c1)C(=C1C(=O)Nc3ccccc31)C(=O)N2 [10726/D09] | -6.5% | 45.7%
O=C1Nc2ccc(I)cc2C1=Cc1cc(O)ccc1O [10727/B10] | 94.0% | 99.2%
O=C1Nc2c(Br)cc(Br)cc2C1=Cc1ccccc1Sc1ccc(Cl)cc1 [10727/A05] | -3.0% | 29.0%
CCc1ccc(C=C2C(=O)Nc3ccc(S(=O)(=O)N4CCOCC4)cc32)s1 [10726/F10] | -17.4% | 51.4%
CCc1cc(CC)c(C=C2C(=O)Nc3ccc(Br)c(C)c32)[nH]1 [10727/C03] | 14.6% | 11.9%
O=C1Nc2ccc(I)cc2C1=Cc1coc2ccccc2c1=O [10727/B07] | 46.5% | 83.5%
CCc1cc(CC)c(C=C2C(=O)Nc3c(Br)cc(Br)cc32)[nH]1 [10727/A03] | -19.2% | 40.7%
O=C1Nc2ccc(CCCl)cc2C1=Cc1cc(O)c2c(c1O)CCCC2 [10726/G07] | 54.4% | 94.8%
O=C1Nc2ccc(F)cc2C1=C1C(=O)Nc2ccc(S(=O)(=O)N3CCOCC3)cc21 [10726/F08] | -21.5% | 67.3%
O=C1Nc2ccc(CCCl)cc2C1=Cc1ccc(Br)o1 [10726/G05] | 5.1% | 81.1%
O=C1Nc2ccc(I)cc2C1=Cc1cc(Cl)cc(Br)c1O [10727/B04] | 47.4% | 87.1%
CNS(=O)(=O)c1ccc2c(c1)C(=Cc1ccc(OC)cc1)C(=O)N2 [10726/D11] | -6.3% | 9.6%
O=C1Nc2ccccc2C1=C1C(=O)Nc2ccc(S(=O)(=O)N3CCOCC3)cc21 [10726/F09] | -22.8% | 66.8%
